According to doi:10.1101/2025.01.28.635346v1 (bioRxiv, 2025):
Bridge positions count the residues as written; N and C are the ends. Side chains are listed from the residue outwards. Peptide text beside a SMILES is read from it. * marks the point of attachment. Butanoyl(4-(4-I-phenyl)) = O=C(CCCc1ccc(I)cc1)*; PEG2 = NCCOCCOCCC(=O)O

Assays:
[1] = Plasma protein binding, rapid equilibrium dialysis, human plasma; assay type: in vitro ADME; settings: for fraction unbound at 4 h, 2 μM: human, plasma, pH 7.4
[2] = Plasma protein binding, rapid equilibrium dialysis, mouse plasma; assay type: in vitro ADME; settings: for Plasma protein binding, %Recovery: mouse plasma, RED, 2 μM, 4 h, 37°C; for fraction unbound at 4 h, 2 μM: mouse, plasma, pH 7.4
[3] = molecular target: T1, ADORA2A (Homo sapiens, UniProt P29274); assay: Safetyscan47 GPCR Calcium Flux, Agonist; assay type: cell-based; settings: for Emax: read-out: Max Response
[4] = molecular target: T2, EDNRA (Homo sapiens, UniProt P25101); assay: Safetyscan47 GPCR Calcium Flux, Agonist; assay type: cell-based; settings: for Emax: read-out: Max Response
T2 sequence (P25101 21-427): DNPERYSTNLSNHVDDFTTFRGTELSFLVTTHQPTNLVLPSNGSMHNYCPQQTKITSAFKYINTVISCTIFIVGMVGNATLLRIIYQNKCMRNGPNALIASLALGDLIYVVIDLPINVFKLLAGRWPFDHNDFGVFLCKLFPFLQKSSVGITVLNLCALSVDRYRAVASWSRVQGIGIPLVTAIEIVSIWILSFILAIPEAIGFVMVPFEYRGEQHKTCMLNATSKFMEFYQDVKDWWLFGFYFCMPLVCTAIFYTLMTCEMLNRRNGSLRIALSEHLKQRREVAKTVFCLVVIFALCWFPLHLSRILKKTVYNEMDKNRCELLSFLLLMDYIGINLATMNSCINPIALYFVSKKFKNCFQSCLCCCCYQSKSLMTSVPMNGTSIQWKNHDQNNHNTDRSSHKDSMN

[5] = molecular target: HRH1 (Homo sapiens, UniProt P35367); assay: Safetyscan47 GPCR Calcium Flux, Agonist; assay type: cell-based; settings: for Emax: read-out: Max Response
[6] = molecular target: HTR2B (Homo sapiens, UniProt P41595); assay: Safetyscan47 GPCR Calcium Flux, Agonist; assay type: cell-based; settings: for Emax: read-out: Max Response
[7] = molecular target: T1, ADORA2A; assay: Safetyscan47 GPCR Calcium Flux, Antagonist; assay type: cell-based; settings: for Emax: read-out: Max Response
[8] = molecular target: CHRM3 (Homo sapiens, UniProt P20309); assay: Safetyscan47 GPCR Calcium Flux, Antagonist; assay type: cell-based; settings: for Emax: read-out: Max Response
[9] = molecular target: T2, EDNRA; assay: Safetyscan47 GPCR Calcium Flux, Antagonist; assay type: cell-based; settings: for Emax: read-out: Max Response
[10] = molecular target: CNR1 (Homo sapiens, UniProt P21554); assay: Safetyscan47 GPCR cAMP, Agonist; assay type: cell-based; settings: for Emax: read-out: Max Response
[11] = molecular target: T3, CNR2 (Homo sapiens, UniProt P34972); assay: Safetyscan47 GPCR cAMP, Agonist; assay type: cell-based; settings: for Emax: read-out: Max Response
[12] = molecular target: DRD2S (Homo sapiens, UniProt P14416); assay: Safetyscan47 GPCR cAMP, Agonist; assay type: cell-based; settings: for Emax: read-out: Max Response
[13] = molecular target: OPRK1 (Homo sapiens, UniProt P41145); assay: Safetyscan47 GPCR cAMP, Agonist; assay type: cell-based; settings: for Emax: read-out: Max Response
[14] = molecular target: T4, ADRA2A (Homo sapiens, UniProt P08913); assay: Safetyscan47 GPCR cAMP, Antagonist; assay type: cell-based; settings: for Emax: read-out: Max Response
T4 sequence (P08913 1-465): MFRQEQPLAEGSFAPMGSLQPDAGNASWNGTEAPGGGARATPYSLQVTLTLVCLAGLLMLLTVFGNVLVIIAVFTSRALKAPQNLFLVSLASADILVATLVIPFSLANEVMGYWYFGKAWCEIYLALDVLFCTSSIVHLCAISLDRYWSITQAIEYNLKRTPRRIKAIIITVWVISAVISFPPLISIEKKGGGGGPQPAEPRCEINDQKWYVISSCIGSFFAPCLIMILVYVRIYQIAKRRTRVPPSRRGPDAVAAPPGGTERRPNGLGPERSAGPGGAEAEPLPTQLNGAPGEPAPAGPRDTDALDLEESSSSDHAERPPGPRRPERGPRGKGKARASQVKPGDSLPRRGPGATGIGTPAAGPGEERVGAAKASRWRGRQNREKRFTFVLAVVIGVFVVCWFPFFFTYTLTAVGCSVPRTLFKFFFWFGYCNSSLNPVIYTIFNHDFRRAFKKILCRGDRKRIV

[15] = molecular target: T3, CNR2; assay: Safetyscan47 GPCR cAMP, Antagonist; assay type: cell-based; settings: for Emax: read-out: Max Response
[16] = molecular target: OPRM1 (Homo sapiens, UniProt P35372); assay: Safetyscan47 GPCR cAMP, Antagonist; assay type: cell-based; settings: for Emax: OPRM1, read-out: Max Response
[17] = molecular target: INSR (Homo sapiens, UniProt P06213); assay: Safetyscan47 Kinases Binding, Inhibitor; settings: for Emax: read-out: Max Response
[18] = molecular target: COX1 (Homo sapiens, UniProt P23219); assay: Safetyscan47 Non-Kinase Enzymes Enzymatic, Inhibitor; assay type: biochemical; settings: for Emax: read-out: Max Response
[19] = molecular target: PDE4D2 (Homo sapiens, UniProt Q08499); assay: as above; assay type: biochemical; settings: for Emax: read-out: Max Response

Chain of INSR (P06213 28-1382): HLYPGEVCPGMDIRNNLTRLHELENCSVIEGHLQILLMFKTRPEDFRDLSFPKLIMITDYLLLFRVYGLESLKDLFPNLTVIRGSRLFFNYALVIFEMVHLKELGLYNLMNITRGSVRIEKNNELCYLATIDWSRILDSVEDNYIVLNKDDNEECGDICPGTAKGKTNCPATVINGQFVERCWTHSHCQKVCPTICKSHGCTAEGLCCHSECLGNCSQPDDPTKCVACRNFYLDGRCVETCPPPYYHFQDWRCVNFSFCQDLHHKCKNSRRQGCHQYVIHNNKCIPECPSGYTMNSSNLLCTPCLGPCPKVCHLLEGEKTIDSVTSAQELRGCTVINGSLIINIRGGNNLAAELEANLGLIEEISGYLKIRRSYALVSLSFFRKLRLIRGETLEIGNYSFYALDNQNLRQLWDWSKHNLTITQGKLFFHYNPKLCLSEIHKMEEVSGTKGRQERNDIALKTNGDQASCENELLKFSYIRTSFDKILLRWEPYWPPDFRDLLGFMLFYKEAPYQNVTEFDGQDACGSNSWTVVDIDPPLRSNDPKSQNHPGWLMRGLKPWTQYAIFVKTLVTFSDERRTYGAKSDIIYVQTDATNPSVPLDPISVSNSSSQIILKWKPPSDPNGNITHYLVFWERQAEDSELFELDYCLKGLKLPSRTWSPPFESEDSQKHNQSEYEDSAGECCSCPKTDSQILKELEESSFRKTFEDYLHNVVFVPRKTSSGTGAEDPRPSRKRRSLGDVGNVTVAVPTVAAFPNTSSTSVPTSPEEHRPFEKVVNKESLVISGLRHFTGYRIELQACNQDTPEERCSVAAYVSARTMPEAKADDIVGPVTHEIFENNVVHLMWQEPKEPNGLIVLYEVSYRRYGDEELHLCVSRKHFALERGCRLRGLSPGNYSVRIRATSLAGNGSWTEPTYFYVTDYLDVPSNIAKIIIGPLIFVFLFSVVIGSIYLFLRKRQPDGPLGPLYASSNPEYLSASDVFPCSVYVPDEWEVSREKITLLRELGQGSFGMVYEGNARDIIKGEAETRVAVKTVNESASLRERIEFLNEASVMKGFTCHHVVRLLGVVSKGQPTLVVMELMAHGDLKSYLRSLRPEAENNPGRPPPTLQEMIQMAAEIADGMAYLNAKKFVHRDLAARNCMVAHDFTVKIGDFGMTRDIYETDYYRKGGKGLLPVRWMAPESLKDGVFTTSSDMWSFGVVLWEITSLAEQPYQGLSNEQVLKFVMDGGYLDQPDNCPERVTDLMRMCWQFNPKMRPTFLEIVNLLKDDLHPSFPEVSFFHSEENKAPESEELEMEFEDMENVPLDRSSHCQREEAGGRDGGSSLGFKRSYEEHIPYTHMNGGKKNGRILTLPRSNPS
T3 sequence (P34972 whole entry): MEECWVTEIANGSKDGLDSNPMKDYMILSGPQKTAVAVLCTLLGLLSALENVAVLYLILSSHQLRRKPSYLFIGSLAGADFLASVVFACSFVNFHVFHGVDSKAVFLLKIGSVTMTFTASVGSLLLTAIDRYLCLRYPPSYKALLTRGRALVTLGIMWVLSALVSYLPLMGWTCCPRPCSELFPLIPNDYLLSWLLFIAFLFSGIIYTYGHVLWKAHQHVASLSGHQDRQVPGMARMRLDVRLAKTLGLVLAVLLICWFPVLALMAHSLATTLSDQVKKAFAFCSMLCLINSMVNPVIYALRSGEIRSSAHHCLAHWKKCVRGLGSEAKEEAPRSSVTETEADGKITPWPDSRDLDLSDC
Chain of OPRK1 (P41145 whole entry): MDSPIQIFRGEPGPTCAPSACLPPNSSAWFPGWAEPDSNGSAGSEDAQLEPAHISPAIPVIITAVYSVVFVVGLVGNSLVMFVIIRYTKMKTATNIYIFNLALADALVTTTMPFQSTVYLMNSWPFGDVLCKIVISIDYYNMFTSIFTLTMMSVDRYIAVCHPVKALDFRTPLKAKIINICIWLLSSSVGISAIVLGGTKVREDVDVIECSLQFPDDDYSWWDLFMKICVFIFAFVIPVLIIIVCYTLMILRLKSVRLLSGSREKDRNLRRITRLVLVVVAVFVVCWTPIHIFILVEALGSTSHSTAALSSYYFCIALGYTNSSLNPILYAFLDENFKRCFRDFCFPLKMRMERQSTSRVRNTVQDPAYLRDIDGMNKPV
Chain of OPRM1 (P35372 whole entry): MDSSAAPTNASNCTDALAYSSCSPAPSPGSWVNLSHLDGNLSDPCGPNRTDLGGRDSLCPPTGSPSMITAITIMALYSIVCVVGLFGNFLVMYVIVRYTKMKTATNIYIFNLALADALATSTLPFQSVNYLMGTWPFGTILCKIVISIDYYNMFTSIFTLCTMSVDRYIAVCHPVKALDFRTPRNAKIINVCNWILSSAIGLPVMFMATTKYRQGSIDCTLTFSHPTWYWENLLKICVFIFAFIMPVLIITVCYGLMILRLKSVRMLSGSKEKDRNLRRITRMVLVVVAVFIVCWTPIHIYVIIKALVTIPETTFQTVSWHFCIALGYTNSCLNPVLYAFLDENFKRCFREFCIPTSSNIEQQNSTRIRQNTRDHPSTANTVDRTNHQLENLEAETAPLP
Chain of COX1 (P23219 24-599): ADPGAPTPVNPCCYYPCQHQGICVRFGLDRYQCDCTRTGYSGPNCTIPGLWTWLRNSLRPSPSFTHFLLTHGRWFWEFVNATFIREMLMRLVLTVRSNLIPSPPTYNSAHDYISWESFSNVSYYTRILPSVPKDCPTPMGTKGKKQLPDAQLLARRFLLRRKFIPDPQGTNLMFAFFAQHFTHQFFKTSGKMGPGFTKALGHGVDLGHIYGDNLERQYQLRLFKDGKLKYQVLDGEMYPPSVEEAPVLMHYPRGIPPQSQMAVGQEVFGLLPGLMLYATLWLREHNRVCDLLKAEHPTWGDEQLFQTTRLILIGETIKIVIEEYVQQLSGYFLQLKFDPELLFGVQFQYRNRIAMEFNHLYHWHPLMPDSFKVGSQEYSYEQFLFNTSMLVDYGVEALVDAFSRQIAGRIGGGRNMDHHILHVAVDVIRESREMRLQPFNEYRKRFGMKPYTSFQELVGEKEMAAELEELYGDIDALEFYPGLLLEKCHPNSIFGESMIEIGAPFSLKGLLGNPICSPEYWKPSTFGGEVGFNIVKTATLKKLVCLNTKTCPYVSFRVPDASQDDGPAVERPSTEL
Chain of HTR2B (P41595 whole entry): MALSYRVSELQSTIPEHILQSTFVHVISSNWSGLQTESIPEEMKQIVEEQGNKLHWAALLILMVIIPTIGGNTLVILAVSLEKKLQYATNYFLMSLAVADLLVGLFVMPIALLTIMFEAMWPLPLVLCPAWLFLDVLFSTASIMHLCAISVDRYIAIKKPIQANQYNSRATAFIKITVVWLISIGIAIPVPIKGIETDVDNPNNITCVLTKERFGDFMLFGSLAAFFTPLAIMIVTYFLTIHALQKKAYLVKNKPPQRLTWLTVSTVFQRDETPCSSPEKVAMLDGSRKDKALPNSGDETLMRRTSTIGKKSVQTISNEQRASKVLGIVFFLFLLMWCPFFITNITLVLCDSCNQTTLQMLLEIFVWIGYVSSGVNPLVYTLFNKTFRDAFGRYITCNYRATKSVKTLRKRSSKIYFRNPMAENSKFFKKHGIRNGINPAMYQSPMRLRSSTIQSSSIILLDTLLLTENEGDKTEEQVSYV
Chain of CHRM3 (P20309 whole entry): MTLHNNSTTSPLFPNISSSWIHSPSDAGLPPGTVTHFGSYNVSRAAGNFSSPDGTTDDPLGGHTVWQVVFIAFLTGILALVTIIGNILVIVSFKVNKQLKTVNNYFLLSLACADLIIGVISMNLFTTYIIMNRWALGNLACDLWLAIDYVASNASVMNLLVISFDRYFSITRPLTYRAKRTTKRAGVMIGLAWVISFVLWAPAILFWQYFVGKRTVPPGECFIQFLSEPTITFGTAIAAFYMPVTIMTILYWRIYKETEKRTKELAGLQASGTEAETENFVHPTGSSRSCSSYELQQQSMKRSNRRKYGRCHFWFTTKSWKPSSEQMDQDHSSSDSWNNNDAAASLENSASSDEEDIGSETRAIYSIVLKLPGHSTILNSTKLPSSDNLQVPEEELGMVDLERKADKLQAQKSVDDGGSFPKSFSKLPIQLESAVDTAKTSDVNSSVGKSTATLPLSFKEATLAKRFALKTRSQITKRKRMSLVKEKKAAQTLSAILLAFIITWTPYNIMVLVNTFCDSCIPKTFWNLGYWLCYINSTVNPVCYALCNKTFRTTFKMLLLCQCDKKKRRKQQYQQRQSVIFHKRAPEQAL
T1 sequence (P29274 whole entry): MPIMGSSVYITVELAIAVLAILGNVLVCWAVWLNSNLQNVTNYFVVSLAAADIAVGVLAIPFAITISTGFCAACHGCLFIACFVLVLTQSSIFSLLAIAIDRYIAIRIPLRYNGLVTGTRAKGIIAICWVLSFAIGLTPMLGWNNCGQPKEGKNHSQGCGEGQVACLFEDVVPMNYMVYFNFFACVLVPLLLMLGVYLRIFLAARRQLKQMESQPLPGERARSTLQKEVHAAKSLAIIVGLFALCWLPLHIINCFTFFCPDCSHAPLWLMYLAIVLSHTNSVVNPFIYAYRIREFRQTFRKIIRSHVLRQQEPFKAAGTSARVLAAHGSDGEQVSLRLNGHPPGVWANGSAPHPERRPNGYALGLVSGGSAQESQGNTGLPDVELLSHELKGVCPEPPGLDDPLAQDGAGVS
Chain of CNR1 (P21554 whole entry): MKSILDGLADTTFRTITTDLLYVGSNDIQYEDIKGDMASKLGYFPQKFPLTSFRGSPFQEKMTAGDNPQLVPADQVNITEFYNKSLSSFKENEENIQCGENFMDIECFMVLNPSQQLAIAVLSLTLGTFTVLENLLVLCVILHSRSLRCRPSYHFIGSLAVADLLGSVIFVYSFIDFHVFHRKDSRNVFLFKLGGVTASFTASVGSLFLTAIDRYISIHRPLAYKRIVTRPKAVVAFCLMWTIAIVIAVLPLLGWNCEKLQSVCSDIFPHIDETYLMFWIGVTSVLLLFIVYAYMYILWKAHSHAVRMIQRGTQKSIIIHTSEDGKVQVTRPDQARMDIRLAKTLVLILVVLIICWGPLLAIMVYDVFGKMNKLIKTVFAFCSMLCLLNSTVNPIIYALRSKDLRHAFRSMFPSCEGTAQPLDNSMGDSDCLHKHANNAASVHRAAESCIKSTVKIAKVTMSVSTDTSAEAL

Row | SMILES | fraction unbound at 4 h, 2 μM [1] | Plasma protein binding, %Recovery [2] [%] | fraction unbound at 4 h, 2 μM [2] | EC50 [3] [µM] | Emax [3] [%] | EC50 [4] [µM] | Emax [4] [%] | EC50 [5] [µM] | Emax [5] [%] | EC50 [6] [µM] | Emax [6] [%] | IC50 [7] [µM] | Emax [7] [%] | IC50 [8] [µM] | Emax [8] [%] | IC50 [9] [µM] | Emax [9] [%] | EC50 [10] [µM] | Emax [10] [%] | EC50 [11] [µM] | also measured
1 | CC[C@H](C)[C@H](NC(=O)[C@H](CC(C)C)NC(=O)[C@H](CC(=O)O)NC(=O)CNC(=O)[C@H](CCCNC(=N)N)NC(=O)[C@@H](NC(=O)[C@H](Cc1ccccc1)NC(=O)[C@H](Cc1ccc(O)cc1)NC(=O)[C@@H]1CCC(=O)NCC(=O)NCC(=O)N[C@@H](CCCNC(=N)N)C(=O)NCC(=O)N[C@@H](Cc2c[nH]cn2)C(=O)N[C@@H](C(C)C)C(=O)N2CCC[C@H]2C(=O)N1)C(C)C)C(=O)N[C@@H](CO)C(=O)N[C@@H](Cc1ccccc1)C(=O)N[C@@H](Cc1ccc(O)cc1)C(=O)N[C@@H](CCCCN)C(=O)O [lassotide 36] (GGRGHVPEYFVRGDLISFYK-OH; lactam N-8) | 0.126 | 91 | 0.222 | > 45 | 38.9 | > 45 | 1.75 | > 45 | 2.03 | > 45 | 0 | > 45 | 0 | > 45 | 3.06 | > 45 | 2.52 | > 45 | 1.38 | > 45 | Emax [11]: 6.08%; EC50 [12]: > 45 µM; Emax [12]: 0%; EC50 [13]: > 45 µM; Emax [13]: 2.19%; IC50 [14]: > 45 µM; Emax [14]: 0%; IC50 [15]: > 45 µM; Emax [15]: 1.15%; IC50 [16]: > 45 µM; Emax [16]: 0%; IC50 [17]: > 45 µM; Emax [17]: 17.4%; IC50 [18]: > 45 µM; Emax [18]: 21%; IC50 [19]: > 45 µM; Emax [19]: 0%
2 | CC[C@H](C)[C@H](NC(=O)[C@H](CC(C)C)NC(=O)[C@H](CC(=O)O)NC(=O)CNC(=O)[C@H](CCCNC(=N)N)NC(=O)[C@@H](NC(=O)[C@H](Cc1ccccc1)NC(=O)[C@H](Cc1ccc(O)cc1)NC(=O)[C@@H]1CCC(=O)NCC(=O)NCC(=O)N[C@@H](CCCNC(=N)N)C(=O)NCC(=O)N[C@@H](Cc2c[nH]cn2)C(=O)N[C@@H](C(C)C)C(=O)N2CCC[C@H]2C(=O)N1)C(C)C)C(=O)N[C@@H](CO)C(=O)N[C@@H](Cc1ccccc1)C(=O)N[C@@H](Cc1ccc(O)cc1)C(=O)N[C@@H](CCCCNC(=O)CCOCCOCCNC(=O)CCCc1ccc(I)cc1)C(=O)O [lassotide 47] (GGRGHVPEYFVRGDLISFYK([PEG2-Butanoyl(4-(4-I-phenyl))])-OH; lactam N-8) | 0.006 | 100 | 0.005 | > 45 | 0 | > 45 | 2.94 | > 45 | 0 | > 45 | 0 | > 45 | 7.44 | > 45 | 0.91 | > 45 | 0 | > 45 | 29.1 | > 45 | Plasma protein binding, %Recovery ([1]; human plasma, RED, 2 μM, 4 h, 37°C): 101%; Emax [11]: 1.85%; EC50 [12]: > 45 µM; Emax [12]: 24.1%; EC50 [13]: > 45 µM; Emax [13]: 23.4%; IC50 [14]: > 45 µM; Emax [14]: 0%; IC50 [15]: > 45 µM; Emax [15]: 2.1%; IC50 [16]: > 45 µM; Emax [16]: 0%; IC50 [17]: > 45 µM; Emax [17]: 11.2%; IC50 [18]: > 45 µM; Emax [18]: 19.4%; IC50 [19]: > 45 µM; Emax [19]: 28.5%
